Experimental data: PMC5321753, “Enhanced expression of ADCY1 underlies aberrant neuronal signalling and behaviour in a syndromic autism model” (Nature Communications, 2017)

Columns and labels:
[1] = test system: WT and Fmr1 KO mice; assay: Audiogenic seizures (AGS) induced by 120 dB sound; format: in vivo, mouse; details: NB001 1 mg kg^-1 IP; for % Clonic/tonic seizure / % Death / % Wild running: 1 h before testing, 120 dB
Description: Audiogenic seizures (AGS) were examined with 21- to 24-day-old-mouse (7), as this phenotype is dependent on the age of the mouse and only detected in juvenile Frm1 KO mouse. Mouse was placed in a box (30 cm L × 17 cm W × 12 cm H) with a flat plastic lid. A personal alarm (Streetwise, item # SWPDAL) was taped to the lid of the box and wired to a DC power supply to keep the sound amplitude constant. The mouse was allowed to acclimatize to the box for 5 min, following which 120 dB sound was emitted from the alarm for 2 min. The number of mice undergoing seizure activity within the 2-min period was counted. Audiogenic seizures were classified into different stages: wild running, clonic/tonic seizure and death.
(§1) NB001 was dissolved in water to give a 25 mM stock solution. The stock was diluted in saline and IP injected into mice at 1 mg kg^−1 body weight. In all cases, the drug was administered 1 h before testing. Control mice were treated similarly but injected with saline.
To inhibit phosphodiesterase (PDE), rolipram was dissolved in 10% kolliphore and IP injected into mice at 0.5 or 0.03 mg kg^−1. The use of the higher dose (that is, 0.5 mg kg^−1) was to ensure sufficient inhibition of PDE[44][45]. […] Rolipram- or vehicle (10% kolliphore)-injected mice were examined with light/dark test and AGS 30 min after drug administration.

[2] = test system: ERK1/2; assay: Immunoblot of phosphorylated and total ERK1/2 in hippocampus after i.p. injection; format: in vivo, mouse; details: NB001 1 mg kg^-1 IP
Description: (§2) Hippocampal tissues were collected from 3-month-(+/−10 days) old mice. […] The primers used for Adcy1 were […] (forward) and […] (reverse). The protein levels in hippocampal tissues collected from mice were determined by western blot using anti-ADCY1 (Sigma, Cat # SAB4500146-100UG, 1:1,000 dilution), anti-p-ERK1/2 (Cell Signaling, Cat # 9101L, 1:1,000 dilution), anti-pAkt (Cell Signaling, Cat # 9271, 1:1,000 dilution), anti-pS6K1 (Cell Signaling, Cat # 9204L for the detection of phosphorylation at Thr421/Ser424, Cat # 9234S for the detection of phosphorylation at Thr389, 1:1,000 dilution), anti-ERK1/2 (Cell Signaling, Cat # 9102L, 1:1,000 dilution), anti-Akt (Cell Signaling, Cat # 9272S, 1:1,000 dilution), anti-S6K1 (Cell Signaling, Cat # 9202L, 1:1,000 dilution) and anti-β-actin antibody (Sigma, Cat # A5441; 1:5,000 dilution). Following incubations with infrared fluorescence (IRDye)-conjugated secondary antibodies (1:5,000, LI-COR Biosciences, Cat # 926–32211 and 926–68070), signals were detected using the Odyssey system (LI-COR Biosciences). The un-cropped western blots are shown in Supplementary Fig. 10.
as §1

[3] = test system: S6K1; assay: Immunoblot of phosphorylated and total S6K1 in hippocampus after i.p. injection; format: in vivo, mouse
Description: as §2, §1

[4] = test system: Akt; assay: Immunoblot of phosphorylated and total Akt in hippocampus after i.p. injection; format: in vivo, mouse; details: acute NB001 1 mg kg^-1 IP, 1 h after injection
Description: as §2, §1

[5] = test system: WT and Fmr1 KO mice; assay: Marble burying test; format: in vivo, mouse; details: NB001 1 mg kg^-1 IP, 1 h before testing
Description: Repetitive behaviour was determined by the marble burying test as described. 3-month-(+/−10 days) old mouse was placed in a regular mouse cage filled with 7.6 cm-deep bedding for 1 h before the test. The mouse was then briefly removed from the testing box and 15 marbles were evenly arranged in a 5 × 3 pattern on the surface of the bedding. The mouse was reintroduced into the testing box and was allowed to bury marbles for 10 min. At the end of the testing period, the number of marbles that were fully buried, partially buried and left on the surface was counted.
as §1

[6] = Mouse liver microsome stability assay; format: in vitro ADME; details: incubation with liver microsomes, 0-60 min
Description: Following IP injection of NB001 (20 mg kg^−1), mice were killed at various time points, and 0.5–0.8 ml of blood was drawn from a cardiac puncture into a 1 ml syringe, which was pre-treated with NaHeparin. The blood was collected into 1.5 ml microfuge tubes coated with NaHeparin and put on ice immediately. Samples were centrifuged at 15,000 r.p.m. for 15 min. Blood plasma was collected from the upper layer, leaving the blood cells in the tube. The plasma was frozen at −80 °C for later analysis. Brains were taken out and weighed immediately. Brains were frozen at −80 °C for later preparation and analysis. The samples were subjected to LC/MS/MS with Turbo-Ionspray Interface used in the positive ion-mode (Pharmacokinetics Core, University of Michigan). Mouse liver microsome stability assay was performed by the Pharmacokinetics Core at University of Michigan.

[7] = test system: mice; assay: Clinical panel blood test after 14 days of NB001; format: in vivo, mouse
Description: Mice at 3 months (+/−10 days) of age were IP injected with NB001 twice daily at 50 mg kg^−1 for 2 weeks. Clinical observations were performed twice daily and body weights were measured on various days during the dosing regimen. At the end of the dosing period, mice were killed and blood was collected for clinical pathology (Diagnostic Center for Population and Animal Health, Michigan State University). The liver and kidney were collected and fixed in 10% buffered formalin (INVIVO facility at Michigan State University).

[8] = test system: ADCY1; design: method as in PMID 21228397; details: intact cells; cited from earlier work
[9] = blood, NB001 50 mg per kg twice per day for 14 days
[10] = blood, NB001 50 mg per kg twice per day for 14 days, mean ± SEM

Nc1ncnc2c1ncn2CCNCCCCCO [NB001, 5-{[2-(6-amino-9H-purin-9-yl)ethyl]amino}-1-pentanol]
occurrence of AGS versus vehicle (saline)-injected controls ([1]; Fmr1 KO mice): less occurrence
% Clonic/tonic seizure ([1]; Fmr1 KO mice): 5.8%
% Death ([1]; Fmr1 KO mice): 5.8%
% Wild running ([1]; Fmr1 KO mice): 35.2%
% Clonic/tonic seizure ([1]; WT mice): 0%
% Death ([1]; WT mice): 0%
% Wild running ([1]; WT mice): 0%
elevated level of p-ERK1/2 in the hippocampus ([2]; Fmr1 KO mice, 1 h after injection, relative to WT levels): normalized
phosphorylation of ERK1/2 in WT mice ([2]; WT mice, hippocampus): did not cause measurable changes
elevated level of pS6K1 (at Thr421/Ser424) in the hippocampus ([3]; Fmr1 KO mice, NB001 1 mg kg^-1 IP, 1 h after injection, relative to WT levels): normalized
phosphorylation of S6K1 in WT mice ([3]; WT mice, NB001 1 mg kg^-1 IP, hippocampus): did not cause measurable changes
level of pS6K1 at PI3K target site Thr389 ([3]; hippocampus, acute NB001 1 mg kg^-1 IP, 1 h after injection): not affected
level of pAkt [4]: not affected
marble burying behaviour, NB001-injected Fmr1 KO versus WT mice [5]: comparable
stability in mouse liver microsome assay [6]: stable and resistant to degradation
concentrations of various electrolytes and levels of the main toxicity-related proteins (such as aminotransferases) ([7]; NB001 50 mg kg^-1 twice a day for 14 days): no effect
ALT ([7]; alanine aminotransferase, blood, NB001 50 mg per kg twice per day for 14 days, mean ± SEM): 18.50 ±0.96 U/L
ALP ([7]; alkaline phosphatase, blood, NB001 50 mg per kg twice per day for 14 days, mean ± SEM): 62.75 ±4.48 U/L
AST ([7]; aspartate aminotransferase, blood, NB001 50 mg per kg twice per day for 14 days, mean ± SEM): 32.50 ±1.55 U/L
Hemolysis Chem [7, 9]: Normal
Icterus Chem [7, 9]: Normal
Lipemia Chem [7, 9]: Normal
Albumin [7, 10]: 2.65 ± 0.13 g/dL
Amylase [7, 10]: 586.50 ±29.02 U/L
Anion Gap [7, 10]: 29.50 ± 2.36 mmol/L
Calcium [7, 10]: 8.83 ± 0.20 mg/dL
Chol [7, 10]: 100.00 ± 5.96 mg/dL
Glucose [7, 10]: 216.50 ± 8.50 mg/dL
Magnesium [7, 10]: 2.60 ± 0.11 mg/dL
Na/K Ratio [7, 10]: 32.00 ±1.47
Osmolarity [7, 10]: 321.00 ±4.00 mOs/L
Phosphorus [7, 10]: 6.50 ± 0.24 mg/dL
Potassium [7, 10]: 4.73 ± 0.22 mmol/L
Sodium [7, 10]: 150.50 ± 1.50 mmol/L
Total CO2 [7, 10]: 13.50 ± 1.04 mmol/L
Urea Nitrogen [7, 10]: 24.50 ± 0.87 mg/dL
inhibition of ADCY1 activity versus other types of adenylyl cyclases [8]: preferentially inhibits ADCY1 activity over other types of adenylyl cyclases
